# Source: patent publication US12433865B2, “Compositions comprising PGI2-receptor agonists and processes for the preparation thereof” (Arena Pharmaceuticals, Inc., priority 2018, dated 2025)
# Experiment: Release (dissolution) profile of capsules, USP Apparatus 2 (paddle)
# Format: physicochemical
# Conditions: 0.04 mg capsule; for Release rate (percentage of Compound 1 released over time): Poloxamer 188:food grade GMS 50:50
# Excerpt: USP Apparatus 2 (Paddle Apparatus) is described, for example, in the United States Pharmacopeial Convention, Feb. 1, 2012, Chapter <711> (“Dissolution”), incorporated by reference herein in its entirety. See http://www.usp.org/sites/default/files/usp_pdf/EN/USPNF/revisions/m99470-gc_711.pdf. The assembly from Apparatus 1 is used, except that a paddle formed from a blade and a shaft is used as the stirring element. The shaft is positioned so that its axis is not more than 2 mm from the vertical axis of the vessel at any point and rotates smoothly without significant wobble that could affect the results. The vertical center line of the blade passes through the axis of the shaft so that the bottom of the blade is flush with the bottom of the shaft. A distance of 25±2 mm between the bottom of the blade and the inside bottom of the vessel is maintained during the test. The metallic or suitably inert, rigid blade and shaft comprise a single entity. A suitable two-part detachable design may be used provided the assembly remains firmly engaged during the test. The paddle blade and shaft may be coated with a suitable coating so as to make them inert. The dosage unit is allowed to sink to the bottom of the vessel before rotation of the blade is started. A small, loose piece of nonreactive material, such as not more than a few turns of wire helix, may be attached to dosage units that would otherwise float. Other validated sinker devices may be used.
# Unless otherwise specified, the release profiles for capsules were measured using USP Apparatus 2 (paddle).
# All release profiles disclosed in Tables 3c-3p were measured with USP Apparatus 2 (paddle) at 50 rpm in 500 mL of aqueous sodium phosphate at a concentration of 0.05 M (pH=6.8). The values in a given table relate to capsules obtained from the same batch. Values shown represent mean values over a number of dissolution tests (“n” in each table) in each case.
smiles,measurement,setting,value
"O=C(O)COC[C@H]1CC[C@H](COC(=O)N(c2ccccc2)c2ccc(Cl)cc2)CC1 [Compound 1, 2-(((1r,4r)-4-(((4-chlorophenyl)(phenyl)carbamoyloxy)methyl)cyclohexyl)methoxy)acetic acid]",release profile post-curing,"Poloxamer 188:food grade GMS 50:50, cured 18 hours, one week, two weeks and four weeks post-curing (FIG. 6)",remained substantially the same
same,Release rate (percentage of Compound 1 released over time),"1 wk (40° C.) storage, 30 min",11.1%
same,Release rate (percentage of Compound 1 released over time),"1 wk (40° C.) storage, 60 min",22.6%
same,Release rate (percentage of Compound 1 released over time),"1 wk (40° C.) storage, 120 min",40.1%
same,Release rate (percentage of Compound 1 released over time),"1 wk (40° C.) storage, 180 min",59.2%
same,Release rate (percentage of Compound 1 released over time),"1 wk (40° C.) storage, 240 min",71.8%
same,Release rate (percentage of Compound 1 released over time),"1 wk (40° C.) storage, 360 min",88.4%
same,Release rate (percentage of Compound 1 released over time),"1 wk (40° C.) storage, 480 min",92.2%
same,Release rate (percentage of Compound 1 released over time),"1 wk (40° C.) storage, 600 min",96.2%
same,Release rate (percentage of Compound 1 released over time),"1 wk (40° C.) storage, 720 min",95.3%
same,Release rate (percentage of Compound 1 released over time),"1 wk (40° C.) storage, 735 min",96.1%
same,Release rate (percentage of Compound 1 released over time),"2 wks (40° C.) storage, 30 min",10.8%
same,Release rate (percentage of Compound 1 released over time),"2 wks (40° C.) storage, 60 min",18.3%
same,Release rate (percentage of Compound 1 released over time),"2 wks (40° C.) storage, 120 min",36.8%
same,Release rate (percentage of Compound 1 released over time),"2 wks (40° C.) storage, 180 min",52.9%
same,Release rate (percentage of Compound 1 released over time),"2 wks (40° C.) storage, 240 min",67.4%
same,Release rate (percentage of Compound 1 released over time),"2 wks (40° C.) storage, 360 min",83.3%
same,Release rate (percentage of Compound 1 released over time),"2 wks (40° C.) storage, 480 min",90.3%
same,Release rate (percentage of Compound 1 released over time),"2 wks (40° C.) storage, 600 min",93.8%
same,Release rate (percentage of Compound 1 released over time),"2 wks (40° C.) storage, 720 min",93.7%
same,Release rate (percentage of Compound 1 released over time),"2 wks (40° C.) storage, 735 min",94.3%
same,Release rate (percentage of Compound 1 released over time),"4 wks (40° C.) storage, 30 min",7.3%
same,Release rate (percentage of Compound 1 released over time),"4 wks (40° C.) storage, 60 min",17.7%
same,Release rate (percentage of Compound 1 released over time),"4 wks (40° C.) storage, 120 min",37.4%
same,Release rate (percentage of Compound 1 released over time),"4 wks (40° C.) storage, 180 min",54.6%
same,Release rate (percentage of Compound 1 released over time),"4 wks (40° C.) storage, 240 min",70.3%
same,Release rate (percentage of Compound 1 released over time),"4 wks (40° C.) storage, 360 min",87.5%
same,Release rate (percentage of Compound 1 released over time),"4 wks (40° C.) storage, 480 min","90,9%"
same,Release rate (percentage of Compound 1 released over time),"4 wks (40° C.) storage, 600 min",93.2%
same,Release rate (percentage of Compound 1 released over time),"4 wks (40° C.) storage, 720 min",95.0%
same,Release rate (percentage of Compound 1 released over time),"4 wks (40° C.) storage, 735 min",94.3%
same,Release rate (percentage of Compound 1 released over time),"18 hrs (50° C.) curing, 30 min",14.3%
same,Release rate (percentage of Compound 1 released over time),"18 hrs (50° C.) curing, 60 min",21.8%
same,Release rate (percentage of Compound 1 released over time),"18 hrs (50° C.) curing, 120 min",39.9%
same,Release rate (percentage of Compound 1 released over time),"18 hrs (50° C.) curing, 180 min",56.3%
same,Release rate (percentage of Compound 1 released over time),"18 hrs (50° C.) curing, 240 min",72.6%
same,Release rate (percentage of Compound 1 released over time),"18 hrs (50° C.) curing, 360 min",89.2%
same,Release rate (percentage of Compound 1 released over time),"18 hrs (50° C.) curing, 480 min",93.5%
same,Release rate (percentage of Compound 1 released over time),"18 hrs (50° C.) curing, 600 min",95.7%
same,Release rate (percentage of Compound 1 released over time),"18 hrs (50° C.) curing, 720 min",96.9%
same,Release rate (percentage of Compound 1 released over time),"18 hrs (50° C.) curing, 735 min",95.6%
same,Release rate (percentage of Compound 1 released over time),"T = 0 (pre-curing), 30 min",11.0%
same,Release rate (percentage of Compound 1 released over time),"T = 0 (pre-curing), 60 min",18.3%
same,Release rate (percentage of Compound 1 released over time),"T = 0 (pre-curing), 120 min",30.1%
same,Release rate (percentage of Compound 1 released over time),"T = 0 (pre-curing), 180 min",39.6%
same,Release rate (percentage of Compound 1 released over time),"T = 0 (pre-curing), 240 min",48.8%
same,Release rate (percentage of Compound 1 released over time),"T = 0 (pre-curing), 360 min",64.1%
